Laboratory results: article PMC8294803, “A Roadmap to the Structure-Related Metabolism Pathways of Per- and Polyfluoroalkyl Substances in the Early Life Stages of Zebrafish (Danio rerio)” (Environmental Health Perspectives, 2021)
Where “and” joins values, the source holds several entries; their conditions need not be identical. Equal entries are not always repeated. Where two headings read alike, the source gives them in different places.

Assays:
[1] = test system: zebrafish larvae; assay: Bioconcentration factors (BCF) of PFAS in zebrafish larvae; details: zebrafish larvae, 120 hpf, three replicates; for BCF 0.5µM: 0.5 µM exposure; for BCF 5µM: 5 µM exposure
Protocol: Zebrafish embryos were collected immediately after spawning, within 1 h, and subsequently transferred to 24-well plates with 1mL of facility water ( 0.036g sea salt, 0.15g sodium bicarbonate in 2L of reverse osmosis water). […] Three well replicates on the same plate were conducted for each concentration of individual chemical. […] Seven batches of experiments were performed to test all 74 PFAS. DMSO controls were incorporated in each batch of exposure experiments. Three replicates were performed for each treatment group, and 20 embryos were used for each replicate. […] For daily replenishment, 2.5mL of old exposure medium were replaced with freshly prepared medium every 24 h from 24 to 96 h post fertilization (hpf). Hatched or dead embryo numbers were recorded every 24 hpf, after which dead embryos were discarded from the growth media. Dead embryos or unhatched embryos were not used for PFAS measurement because the metabolism of PFAS might have been impacted. Zebrafish larvae collection occurred at 120 hpf. First, the larvae were anesthetized by cooling the plate in ice water (0–4°C) for ∼20 min . Then 8–15 larvae in each well were transferred into 1.5-mL tubes. Exposure media was carefully removed, and then the larvae were weighed (wet weight) after blotting excess water with a paper towel. […] Samples were stored at −80 °C until further chemical analysis was performed. Survival rate and hatching rate were calculated by summarizing all the documented data from the whole treatment duration. […] The exposure experiment of PFOSA was repeated using the same procedure as described above.
Each sample was spiked with 2μL of 0.2μg/mL mass-labeled PFAS mixture. Following this, 500μL of dichloromethane/methanol (2:1, vol/vol) was added to each sample for PFAS extraction. Larvae were then homogenized via ultrasonic probe, followed by 30 min of shaking and 30 min of sonication. Each sample was centrifuged at 14,000×g for 5 min, after which the supernatant was transferred to new tubes. Extraction was repeated once and the two supernatants were combined, evaporated under nitrogen flow, and reconstituted in 200μL of methanol for MS analysis.
Three microliters of each zebrafish extract was applied to a C18 column ( 1.5μm; 2.1mm×50mm; Thermo Scientific) and analyzed using a Vanquish ultra-HPLC system (Thermo Fisher Scientific) coupled to a Q Exactive high-resolution mass spectrometer (Thermo Fisher Scientific). The sampler and column compartments were maintained at 4°C and 40°C, respectively. The aqueous mobile phase solution (A) consisted of water, whereas the organic mobile phase solution (B) consisted of acetonitrile. […] MS data was acquired in full scan mode (100–1000 m/z, 70,000 mass resolution, 3×10^6 maximum ions collected per 100 ms), and tandem MS (MS/MS) data was recorded by all-ion fragmentation (AIF) mode. Negative and positive ion modes were carried out simultaneously at a 10-min method duration. […] An overview of the analyses conducted on the various PFAS is available in Table S2.
GraphPad Prism (version 7.0.4; GraphPad Software) and R studio (version 1.1.456; R Studio Inc.) software was used, and an ANOVA with Dunnett tests was employed to evaluate the statistical significance of the percentage hatched and mortality rate. Exponential regressions were used to determine the relationships between bioconcentration factor (BCF) and binding affinities ( Kd ) to L-FABP.

[2] = test system: zebrafish embryos
[3] = biological target: liver fatty acid binding protein (L-FABP); design: method as in Yang et al. 2020; details: ref Yang et al. 2020; read-out: Kd (μM), L-FABP binding affinity; cited from earlier work
[4] = 5μM through 120 hpf, malformation rate

Row | SMILES | BCF 0.5µM [1] | BCF 5µM [1] [L/kg] | pericardial oedemata, Mean [2, 4] [%] | spinal curvature, Mean [2, 4] [%] | tail dysplasia, Mean [2, 4] [%] | Mortality (%) ([2]; 5 µM, exposure through 120 hpf) | Kd [3] [µM] | Mortality (%) ([2]; in vivo) | pericardial oedemata, Mean ([2]; in vivo) [%] | spinal curvature, Mean ([2]; in vivo) [%] | tail dysplasia, Mean ([2]; in vivo) [%] | Lethal effects on zebrafish larvae ([2]; 5μM, 5 d)
1 | O=S(=O)([O-])C(F)(F)C(F)(F)C(F)(F)C(F)(F)C(F)(F)C(F)(F)C(F)(F)C(F)(F)F.[K+] [compound 6, Potassium perfluorooctanesulfonate] | 288 ± 99 L/kg and 287.815 L/kg | 82 ± 9.2 | 1.11 | 2.22 | 1.11 | 2.2 | 8.1 | – | – | – | – | –
2 | O=C(O)C(F)(F)OC(F)(F)C(F)(F)OC(F)(F)C(=O)O [compound 7, Perfluoro-3,6-dioxaoctane-1,8-dioic acid] | NDb | – | 2.22 | 1.11 | 0.00 | 1.1 | – | – | – | – | – | –
3 | O=S(=O)(O)CCC(F)(F)C(F)(F)C(F)(F)C(F)(F)F [compound 15, 4:2 Fluorotelomer sulfonic acid] | 5.68 L/kg | 2.5 ± 0.13 | – | – | – | – | – | 0 | 1.11 | 0.00 | 0.00 | –
4 | O=C(O)C(F)(F)C(F)(F)C(F)(F)C(F)(F)C(F)(F)C(F)(F)C(F)(F)C(F)(F)F [compound 17, Perfluorononanoic acid] | 152.811 L/kg | 73 ± 6.9 | 0.00 | 0.00 | 0.00 | 1.1 | 4.3 | – | – | – | – | –
5 | O=C(O)C(F)(F)C(F)(F)C(F)(F)C(F)(F)C(F)(F)F [compound 20, Perfluorohexanoic acid] | 6.647 L/kg | 3.5 ± 0.64 | 0.00 | 0.00 | 0.00 | 0 | 141 | – | – | – | – | –
6 | N.O=C(O)C(F)(F)C(F)(F)C(F)(F)C(F)(F)C(F)(F)C(F)(F)C(F)(F)F [compound 21, Ammonium perfluorooctanoate] | 42.5265 L/kg | 21 ± 0.42 | 2.22 | 1.11 | 2.22 | 0 | 18.7 | – | – | – | – | –
7 | O=C(O)C=C(C(F)(F)F)C(F)(F)F [compound 23, 3,3-Bis(trifluoromethyl)-2-propenoic acid] | 1.831 L/kg | 0.69 ± 0.29 | 1.11 | 3.33 | 3.33 | 2.2 | – | – | – | – | – | –
8 | CCNS(=O)(=O)C(F)(F)C(F)(F)C(F)(F)C(F)(F)C(F)(F)C(F)(F)C(F)(F)C(F)(F)F [compound 24, N-Ethylperfluorooctanesulfonamide] | 28.4424 L/kg | 24 ± 2.9 | 1.11 | 1.11 | 1.11 | 3.3 | – | – | – | – | – | did not cause significant lethal effects
9 | OCC(F)(F)C(F)(F)C(F)(F)CO [compound 35, Hexafluoroamylene glycol] | 1.573 L/kg | 1.1 ± 0.09 | 1.11 | 4.44 | 0.00 | 0 | – | – | – | – | – | –
10 | FC(F)(F)C(F)(F)CNCC(F)(F)C(F)(F)F [compound 45, Bis(1H,1H-perfluoropropyl)amine] | – | – | 1.11 | 0.00 | 1.11 | 2.2 | – | – | – | – | – | –
11 | OCC(F)(F)C(F)(F)C(F)(F)C(F)F [compound 48, 1H,1H,5H-Perfluoropentanol] | – | – | 4.44 | 6.67 | 1.11 | 1.1 | 916 | – | – | – | – | –
12 | OCC(F)(F)C(F)(F)C(F)(F)C(F)(F)C(F)(F)C(F)(F)C(F)(F)C(F)(F)C(F)(F)C(F)(F)C(F)(F)F [compound 50, 11:1 Fluorotelomer alcohol] | – | 1.7 ± 0.23 | 1.11 | 0.00 | 1.11 | 1.1 | – | – | – | – | – | –
13 | O=C(F)C(F)(F)C(F)(F)C(F)(F)C(F)F [compound 51, 5H-Octafluoropentanoyl fluoride] | – | – | – | – | – | – | – | 0 | 1.11 | 0.00 | 3.33 | –
14 | FC(F)OCC(F)(F)C(F)(F)F [compound 52, Difluoromethyl 1H,1H-perfluoropropyl] | – | – | 1.11 | 0.00 | 0.00 | 2.2 | – | – | – | – | – | –
15 | FC(F)=C(F)OC(F)(F)C(F)(F)C(F)(F)F [compound 53, Heptafluoropropyl trifluorovinyl ether] | – | – | 0.00 | 1.11 | 0.00 | 2.2 | – | – | – | – | – | –
16 | CC(=O)C(F)(F)C(F)(F)F [compound 55, Methyl perfluoroethyl ketone] | – | – | 1.11 | 2.22 | 0.00 | 2.2 | – | – | – | – | – | –
17 | C=CC(F)(F)C(F)(F)C(F)(F)C(F)(F)F [compound 59, 1H,1H,2H-Perfluoro-1-hexene] | – | – | 0.00 | 1.11 | 0.00 | 4.4 | – | – | – | – | – | –
18 | CC(O)C(F)(F)C(F)(F)F (centres unmarked) [compound 62, 1-Pentafluoroethylethanol] | – | – | 1.11 | 0.00 | 1.11 | 6.7 | – | – | – | – | – | –
19 | O=C(F)C(F)(F)C(F)(F)C(F)(F)C(=O)F [compound 63, Perfluoroglutaryl difluoride] | – | – | 0.00 | 0.00 | 0.00 | 5.6 | – | – | – | – | – | –
20 | OCCC(F)(F)C(F)(F)C(F)(F)C(F)(F)C(F)(F)C(F)(F)C(F)(F)C(F)(F)F [compound 64, 8:2 Fluorotelomer alcohol] | – | – | 0.00 | 2.22 | 0.00 | 3.3 | – | – | – | – | – | –
21 | CCOC(F)(F)C(F)(F)C(F)(F)C(F)(F)F [compound 65, Ethyl perfluorobutyl ether] | – | – | 0.00 | 0.00 | 0.00 | 0 | – | – | – | – | – | –
22 | OC(O)(C(F)C(O)(O)C(F)(F)F)C(F)(F)F [compound 66, 3H-Perfluoro-2,2,4,4-tetrahydroxypentane] | – | – | 0.00 | 0.00 | 0.00 | 1.1 | – | – | – | – | – | –
23 | NCC(F)(F)C(F)(F)C(F)(F)C(F)(F)F [compound 68, 1H,1H-Perfluoropentylamine] | – | – | 0.00 | 0.00 | 0.00 | 1.1 | – | – | – | – | – | –
24 | FC(F)=C(F)C(F)(F)C(F)(F)C(F)(F)C(F)F [compound 69, 6H-Perfluorohex-1-ene] | – | – | 0.00 | 0.00 | 0.00 | 0 | – | – | – | – | – | –
25 | NC(C(F)(F)F)C(F)(F)F [compound 71, 2-Amino-2H-perfluoropropane] | – | – | 0.00 | 0.00 | 0.00 | 3.3 | – | – | – | – | – | –
26 | O=CC(F)(F)C(F)(F)C(F)(F)C(F)F [compound 72, 5H-Perfluoropentanal] | – | – | 0.00 | 0.00 | 0.00 | 3.3 | – | – | – | – | – | –
